Molecular target: T1, Solute carrier family 2, facilitated glucose transporter member 2 (Homo sapiens, UniProt P11168)
T1 sequence (P11168 whole entry): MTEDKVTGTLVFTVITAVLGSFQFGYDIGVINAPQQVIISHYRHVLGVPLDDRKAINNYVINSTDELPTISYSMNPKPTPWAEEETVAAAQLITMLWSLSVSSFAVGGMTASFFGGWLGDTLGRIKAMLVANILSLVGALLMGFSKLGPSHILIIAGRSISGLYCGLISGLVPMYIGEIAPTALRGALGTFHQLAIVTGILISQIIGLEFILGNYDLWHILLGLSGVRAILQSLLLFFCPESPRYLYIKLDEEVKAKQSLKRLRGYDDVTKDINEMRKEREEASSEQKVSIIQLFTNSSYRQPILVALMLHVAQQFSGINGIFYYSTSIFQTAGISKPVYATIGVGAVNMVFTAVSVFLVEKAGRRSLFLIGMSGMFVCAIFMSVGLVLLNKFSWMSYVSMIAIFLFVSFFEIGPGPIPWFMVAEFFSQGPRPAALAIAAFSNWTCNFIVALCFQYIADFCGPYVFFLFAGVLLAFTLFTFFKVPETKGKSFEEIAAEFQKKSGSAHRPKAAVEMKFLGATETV
Test: Inhibition of the Glucose Transporter (GLUT2, SLC2A2) as assessed by a FRET based flow cytometry assay using a genetically-encoded biosensor for measuring free glucose (FLII12Pglu-700uDelta6) in HEK293 JumpIN TRex SLC2A2 WT-OE cells (PubChem AID: 1794829)
Assay type: functional, cell-based

Compound | IC50 | EC50
C=C1[C@@H](C)[C@H]2[C@H](Cc3ccccc3)NC(=O)[C@]23OC(=O)/C=C/[C@H](O)CCC[C@@H](C)C/C=C/[C@H]3[C@@H]1O [CYTOCHALASIN B] | > 10 µM | 
OC[C@H]1OC(O)[C@H](O)[C@@H](O)[C@@H]1O (stereo partly drawn) [DEXTROSE] |  | 527 µM
O=C(Oc1cccc(F)c1OC(=O)c1cccc(O)c1)c1cccc(O)c1 | > 10 µM | 

Source: ChEMBL document CHEMBL5209578, “Flow cytometry transport assay for SLC2A2 using HEK293 JumpIN TRex SLC2A2 WT-OE cells” (2022)
